Test results as given in PubChem BioAssay (NCI).
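In this assay, cells in 96-well plates receive the compound at five concentrations for 48 hours. Endpoints are linearly interpolated between the surrounding concentrations. The concentration for 50% growth inhibition is given as GI50. At the TGI there is no net growth.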

What was measured:
Experiment in all cases: NCI-60 cell line screen, 48 h
SNB-19 CNS = test system: SNB-19 CNS
KM20L2 colon = test system: KM20L2 colon
EKVX NSCLC = test system: EKVX NSCLC
DLD-1 colon = test system: DLD-1 colon
COLO 205 colon = test system: COLO 205 colon
SK-OV-3 ovarian = test system: SK-OV-3 ovarian
786-0 renal = test system: 786-0 renal
PC-3 prostate = test system: PC-3 prostate
HCT-15 colon = test system: HCT-15 colon
SNB-75 CNS = test system: SNB-75 CNS

Row | Compound | TGI (SNB-19 CNS) [µM] | TGI (KM20L2 colon) [µM] | TGI (EKVX NSCLC) [µM] | TGI (DLD-1 colon) [µM] | TGI (COLO 205 colon) [µM] | TGI (SK-OV-3 ovarian) [µM] | TGI (786-0 renal) [µM] | TGI (PC-3 prostate) [µM] | TGI (HCT-15 colon) [µM] | TGI (SNB-75 CNS) [µM] | GI50 (KM20L2 colon) [µM] | GI50 (HCT-15 colon) [µM] | GI50 (EKVX NSCLC) [µM] | GI50 (DLD-1 colon) [µM] | GI50 (SNB-75 CNS) [µM] | GI50 (COLO 205 colon) [µM] | GI50 (SK-OV-3 ovarian) [µM] | GI50 (786-0 renal) [µM]
1 | O=c1cc2n(c(=O)[nH]1)C1OC(C(O)C1O)[C@H]2CCO (stereo partly specified) | > 100 | > 100 | > 100 | > 100 | > 100 | > 100 | > 100 | – | – | – | – | – | – | – | – | – | – | –
2 | COC(=O)NNc1c([N+](=O)[O-])cnn(-c2ccccc2)c1=O | 23.2 | 7.78 | 9.75 | 3.91 | 6.02 | 17 | 7.39 | 3.21 | 5.58 | 19.5 | – | – | – | – | – | – | – | –
3 | O=C(CCc1nnc2s/c(=C\c3ccc4c(c3)OCO4)c(=O)n12)Nc1cc(Cl)ccc1Cl | > 100 | > 100 | > 100 | > 100 | > 100 | > 100 | > 100 | – | > 56.6 | > 100 | – | – | – | – | – | – | – | –
4 | Nc1nc(=O)n(C2CC(O)C(O)C(CO)O2)cc1F (stereo unspecified) | > 100 | > 100 | > 100 | > 100 | > 100 | – | > 100 | – | > 100 | > 100 | – | – | – | – | – | – | – | –
5 | CN(C)c1ccccc1CC(c1c[nH]c2ccccc12)c1c[nH]c2ccccc12 | 27.8 | 22.6 | 18.1 | 30.4 | 11.3 | 33.7 | 25.4 | – | 28.8 | 22 | – | – | – | – | – | – | – | –
6 | O=C(CC1(O)C(=O)Nc2c(Cl)cccc21)c1ccccc1 (stereo unspecified) | > 100 | > 100 | > 100 | > 100 | > 100 | > 100 | > 100 | – | > 100 | > 100 | – | – | – | – | – | – | – | –
7 | Cc1cc2cc(Cl)ccc2nc1C(=O)c1ccccc1 | > 100 | > 100 | – | > 100 | > 100 | – | > 100 | – | > 100 | 81.9 | – | – | – | – | – | – | – | –
8 | COC(=O)CSc1ccccc1 | > 100 | > 100 | > 100 | > 100 | > 100 | > 100 | 30.1 | – | > 100 | > 100 | – | – | – | – | – | – | – | –
9 | O=c1c2cc(Br)ccc2[nH]c(=S)n1-c1ccc(Br)cc1 | > 100 | > 100 | > 100 | > 100 | > 100 | – | > 100 | – | > 100 | 41 | – | – | – | – | – | – | – | –
10 | CN(C)c1ccc(/C=C/C(=O)c2ccccc2)cc1Br | 41.3 | 57.6 | > 100 | 35.6 | 34.5 | > 100 | 31.8 | – | 54.7 | 45.7 | – | – | – | – | – | – | – | –
11 | COc1ccc(C(=O)C(c2ccc(OC)cc2)C2C(=O)Oc3ccccc32)cc1 (stereo unspecified) | – | > 100 | > 100 | > 100 | > 100 | > 100 | > 100 | – | > 100 | > 100 | > 100 | > 100 | > 100 | > 100 | > 100 | > 100 | > 100 | > 100
12 | C[N+](C)(C)CCC(=O)N1C/C(=C\c2ccccc2)C(=O)/C(=C/c2ccccc2)C1 | 12.2 | 22 | 35.9 | 5.78 | 13.4 | 46.8 | 5.46 | 6.97 | 6.49 | 24.3 | – | – | – | – | – | – | – | –
